One series deals with HepG2. In words: Cytotoxicity against human HepG2 cells. Type of series: cell-based.
Another series deals with T1, Endothelin-1 receptor (Homo sapiens, UniProt P25101).
T1 sequence (P25101 whole entry): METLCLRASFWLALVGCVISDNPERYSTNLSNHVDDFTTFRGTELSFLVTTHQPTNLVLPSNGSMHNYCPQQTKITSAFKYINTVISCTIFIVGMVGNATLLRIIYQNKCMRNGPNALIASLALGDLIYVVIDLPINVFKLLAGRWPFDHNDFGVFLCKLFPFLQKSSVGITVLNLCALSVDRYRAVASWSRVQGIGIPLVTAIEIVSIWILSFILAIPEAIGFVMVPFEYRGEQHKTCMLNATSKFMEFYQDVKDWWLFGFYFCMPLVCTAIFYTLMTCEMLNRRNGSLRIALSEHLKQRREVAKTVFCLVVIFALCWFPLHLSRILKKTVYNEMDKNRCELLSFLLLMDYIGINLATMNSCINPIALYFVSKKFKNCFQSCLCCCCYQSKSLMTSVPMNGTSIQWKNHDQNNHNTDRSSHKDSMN
As to the kind of experiment: Agonist activity at human wild-type ETA receptor expressed in CHO-K1 cells assessed as calcium level by HTRF assay. Type of series: functional, cell-based.

Series [1] addresses 5-hydroxytryptamine receptor 6 (Homo sapiens, UniProt P50406). As to the kind of experiment: Agonist activity at human 5-HT6 receptor expressed in 1321N1 cells assessed as cAMP by HTRF assay. Type of series: functional, cell-based. (TR-FRET usually uses a lanthanide donor and a delayed reading to cut background.)
Series [2] is described as follows: Chemical stability of compound in 0.1N HCL and 0.5% H2O2 assessed as compound remaining at 10 mg/ml after 1 day. Type of series: physicochemical. Conditions: read-out: Stability.
Series [3] is described as follows: Fraction unbound in human plasma at 5 uM after 4.5 hrs by LC-MS/MS analysis. Type of series: ADME, cell-free.
Series [4] in a line: Fraction unbound in mouse plasma at 5 uM after 4.5 hrs by LC-MS/MS analysis. In kind it is ADME, cell-free.
In the next series the test system is Salmonella typhimurium. In words: Mutagenicity in Salmonella typhimurium by Ames test. Conditions: salmonella enterica subsp. enterica serovar typhimurium. Type of series: toxicity, organism-based. Background: The Ames test uses bacterial strains that need an amino acid and regain growth without it when mutated back.
A further series has as its system human MDR1. As to the kind of experiment: Efflux ratio of permeability across basolateral to apical side over apical to basolateral side in MDCK cells expressing human MDR1 at 5 uM by LC-MS/MS method. In kind it is ADME, cell-based, Canis lupus familiaris. Conditions: dog.
Series [5] has as its target T2, Delta-type opioid receptor (Homo sapiens, UniProt P41143). In words: Agonist activity at human wild-type opioid-delta 1 receptor expressed in CHO-K1 cells assessed as cAMP level by HTRF assay. In kind it is functional, cell-based. (Cyclic AMP is a second messenger, typically raised through Gs and lowered through Gi signalling.)
Series [6] has as its target T2, Delta-type opioid receptor. As to the kind of experiment: Antagonist activity at human wild-type opioid-delta 1 receptor expressed in CHO-K1 cells assessed as DPDPE-induced cAMP by HTRF assay. Type of series: functional, cell-based.

As a reminder, the EC20 is the concentration needed for an effect of 20%. A word on the EC50: it is the midpoint of the concentration-response curve. In general, fraction unbound refers to the share of the substance not bound to proteins or other matrix. The low end stands for little free substance, the high end for much free substance. For orientation: efflux ratio means the permeability from basolateral to apical divided by that in the opposite direction, in the common usage. As usually defined, the IC50 is the concentration at which inhibition is half-maximal.

T2 sequence (P41143 whole entry): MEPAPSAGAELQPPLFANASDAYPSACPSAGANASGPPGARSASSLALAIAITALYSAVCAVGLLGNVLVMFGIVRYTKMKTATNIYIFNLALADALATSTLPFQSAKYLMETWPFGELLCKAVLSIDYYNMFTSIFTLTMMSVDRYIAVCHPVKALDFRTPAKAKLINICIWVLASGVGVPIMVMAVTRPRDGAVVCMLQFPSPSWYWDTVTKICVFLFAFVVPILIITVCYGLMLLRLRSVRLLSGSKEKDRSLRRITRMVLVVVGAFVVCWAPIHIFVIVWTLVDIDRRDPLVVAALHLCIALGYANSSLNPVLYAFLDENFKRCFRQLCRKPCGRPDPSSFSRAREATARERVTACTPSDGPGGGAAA
Chain of 5-hydroxytryptamine receptor 6 (P50406 whole entry): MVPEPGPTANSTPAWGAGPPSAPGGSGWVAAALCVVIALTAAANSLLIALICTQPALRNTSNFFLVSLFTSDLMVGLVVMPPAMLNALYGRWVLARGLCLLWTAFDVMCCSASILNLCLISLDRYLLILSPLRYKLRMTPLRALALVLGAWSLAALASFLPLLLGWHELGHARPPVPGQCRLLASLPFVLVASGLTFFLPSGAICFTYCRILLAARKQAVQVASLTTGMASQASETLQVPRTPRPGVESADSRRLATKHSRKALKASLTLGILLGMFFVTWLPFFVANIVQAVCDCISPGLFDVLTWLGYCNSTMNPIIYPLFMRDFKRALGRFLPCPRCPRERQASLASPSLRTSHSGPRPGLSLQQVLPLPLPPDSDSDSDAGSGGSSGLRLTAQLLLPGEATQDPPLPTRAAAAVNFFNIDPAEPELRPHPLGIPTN

In the series with HepG2, `CB1C=Cc2cccc(OCC(O)CNC(C)C)c2N1` (stereo not given) registered an EC20 of 18.7 µM. Moreover, the EC50 (on Endothelin-1 receptor; in series [1]) was above 5.01 µM in each case. Moreover, the remaining at 24 h, 10 mg/ml in [2] is 0%. Moreover, the free fraction (fraction unbound) at 4.5 h, 5 µM turned out to be 0.179 in series [3] and 0.074 in series [4]. Moreover, in the series on Salmonella typhimurium, the Activity result is “Non-toxic”. The efflux ratio at 5 µM in the series on human MDR1 stood at 2.1.

`CB1C=Cc2c(cccc2OCC(O)CN(C)C)N1` (stereo not given) came in with an EC20 in the series with HepG2 of 59 µM. In addition, the concentration for a half-maximal effect (EC50) (at Endothelin-1 receptor; in series [5]; in series [1]) was above 5.01 µM throughout. The IC50 in [6] is above 5.01 µM. Besides, the results for the unbound share (fraction unbound) at 4.5 h, 5 µM in [3] and in series [4] were 0.367 and 0.21, respectively.

The values are drawn from ChEMBL document CHEMBL3734721 (J Med Chem, 2015).
